# Target: T1, D39G/R84G mutant EAG1 channels (Mus musculus, UniProt Q60603, D39G/R84G)
# T1 construct: expressed in transfected cells; host or cells: Xenopus laevis oocytes injected with cRNA
# T1 sequence (Q60603 1-989 D39G/R84G): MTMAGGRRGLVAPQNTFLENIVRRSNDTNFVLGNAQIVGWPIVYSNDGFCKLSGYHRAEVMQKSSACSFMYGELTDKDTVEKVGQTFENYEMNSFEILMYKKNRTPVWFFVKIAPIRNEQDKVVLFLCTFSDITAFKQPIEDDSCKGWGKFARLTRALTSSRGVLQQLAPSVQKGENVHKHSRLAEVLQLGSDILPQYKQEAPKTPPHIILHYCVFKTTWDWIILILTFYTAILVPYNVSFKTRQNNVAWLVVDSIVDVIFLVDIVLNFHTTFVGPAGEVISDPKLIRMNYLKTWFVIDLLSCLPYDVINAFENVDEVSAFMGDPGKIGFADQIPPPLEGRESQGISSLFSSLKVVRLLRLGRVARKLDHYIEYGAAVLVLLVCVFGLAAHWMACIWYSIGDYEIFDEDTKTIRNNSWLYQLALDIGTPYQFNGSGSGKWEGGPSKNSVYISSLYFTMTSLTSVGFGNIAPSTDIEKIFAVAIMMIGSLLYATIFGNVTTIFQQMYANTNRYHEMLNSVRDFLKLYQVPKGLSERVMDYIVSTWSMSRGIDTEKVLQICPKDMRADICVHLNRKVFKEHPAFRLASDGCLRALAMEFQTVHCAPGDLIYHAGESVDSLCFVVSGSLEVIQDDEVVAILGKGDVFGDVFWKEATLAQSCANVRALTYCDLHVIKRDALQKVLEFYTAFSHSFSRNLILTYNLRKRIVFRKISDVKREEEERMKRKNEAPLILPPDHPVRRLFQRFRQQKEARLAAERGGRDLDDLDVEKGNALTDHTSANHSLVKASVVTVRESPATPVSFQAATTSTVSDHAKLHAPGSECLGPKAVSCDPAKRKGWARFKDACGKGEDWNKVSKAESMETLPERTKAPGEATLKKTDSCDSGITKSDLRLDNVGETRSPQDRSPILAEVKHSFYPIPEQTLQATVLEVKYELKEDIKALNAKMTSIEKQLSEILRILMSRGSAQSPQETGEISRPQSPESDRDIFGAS
# Assay: TEVC recording, imipramine inhibition, D39G/R84G double mutant
# Format: cell-based
# Conditions: D39G/R84G mutant EAG1 channel, +50 mV
# Source text: The cDNA encoding wild-type (WT) mouse EAG1 channels in pGH19 vector was kindly provided by G. Robertson (University of Wisconsin-Madison, Madison, WI). The mutant ΔPAS EAG1 channel in pGH19 with the deletion of the PAS domain residues 2 to 130 was generated by Bio Basic Inc and verified by DNA sequencing (Genewiz). Mutant EAG1 channels with single amino acid substitutions were generated by Genewiz and verified by DNA sequencing. cRNA was transcribed using the T7 mMessage mMachine kit (Thermo Fisher Scientific). Defolliculated Xenopus laevis oocytes were purchased from Ecocyte Bioscience or Xenopus1 and injected with the cRNA using a Nanoinject II oocyte injector (Drummond).
# For EAG1 current recordings, oocytes were placed into a handmade chamber containing a bath solution for the current recording. The currents were recorded using a TEVC technique with OC-725C amplifier (Warner Instruments) and pClamp11 software (Molecular Devices). The signals were digitized using Digidata 1550 (Molecular Devices). Patch pipettes were pulled from borosilicate glass and had resistances of 0.7 to 1.5 MΩ. The recording (bath) solution contained 96 mM NaCl, 4 mM KCl, 0.1 mM CaCl2, 1.8 mM MgCl2, and 5 mM HEPES, pH 7.5. The pipette solution contained 3 M KCl. […]
compound,measurement,value
CN(C)CCCN1c2ccccc2CCc2ccccc21 [imipramine],IC50,142 ± 28.5 µM

# Reference: paper PMC10687071 (The Journal of Biological Chemistry, 2023)
